Data published in patent US20070009571A1, “Novel haptotactic peptides” (Hadasit Medical Research Services & Development Ltd., priority 1998, published 2007).
Entries after “also recorded” stand apart in the source; their conditions may differ. Like-named read-outs stand apart in the source and are kept apart here. Marks after values point to notes of the source that are not given here. No end group written: not given here.

How the values were obtained:
HF = assay: Cell proliferation, MTS assay; assay type: cell-based, human; settings: 0.4 nM-4 μM, 96 well plates
Experimental: Cell proliferation was evaluated by measuring cell density as a function of time by two different colorimetric assays. The MTS colorimetric assay (CellTitre 96 Aqueous Assay by Promega) is based on dehydrogenase conversion of MTS (methyl tetrazolium salt) by viable cells to […] (Ge M. Tang, G., Ryan. T. J. and Malik. A. B., “Fibrinogen degradation product fragment D induces endothelial cell detachment by activation of cell-mediated fibrinolysis”, J. Clin. Inves., 90:2508-2516 (1992)); the methylene blue (MB) assay is based on the staining of monolayer cells after their fixation, and reading the absorbence of the absorbed dye.
The MTS assay for viable cells was performed as follows: 30 μL of freshly prepared MTS/PMS were added to each well; following 2 hrs incubation at 37° C., the plates were placed on a computer driven microplate reader (Anthos HT-II, Salzburg, Austria), programmed to shake the plate for 1 minute before reading the optical density (OD) of the dye at 490 nm. The measurements were repeated following 4 and 6 hours of incubation.
Peptides (Cα (SEQ ID NO:4), […], PreCγ (SEQ ID NO:2) and CαE (SEQ ID NO:3)), up to 1 μg/mL or 100 μg/mL fibrinogen or thrombin (final concentrations) were added to the culture medium and cell numbers were assayed by day 3 using the MTS assay. The change in cell number was compared with that observed versus saline control. Of the 5 peptides tested at dosages up to 10 μg/mL (approximately equimolar to 1 μg/mL fibrinogen), none of the peptides exerted significant effect on cell proliferation (FIG. 7).

BAEC = assay: Chemotaxis, micro-Boyden chamber assay; assay type: cell-based, bovine
Experimental: Chemotaxis was evaluated using 48-well plastic Microtaxis micro-Boyden chambers. Polycarbonate filters with pore size of 8 μm were coated with fibronectin for 2 hours at 37° C. Conditioned medium from 3T3 cells served as a positive control. Test solution (26 μl) containing the tested peptides or protein or medium with no additions that served as control were placed in the lower chamber, covered with the filter. 50 μl cell suspension was introduced to the upper chamber of each well. The number of cells/well varied in the range of 5,000-10,000 in different experiments. The device loaded with cells was incubated at 37° C. for 4-5 hours. The filter was then removed and the non-migrating cells on its upper part were carefully wiped off with a damp cotton swab. The filter was fixed in methanol and stained with Accustain (modified Wright stain solution Sigma Diagnostics: St. Lois, Mo.). Cells that crossed or were retained within the filter were counted microscopically at low magnification so that the viewing field corresponded to the whole area of each well. Each experimental variant was performed in duplicated or triplicates and the data from, three successful experiments were normalized to the values of the positive control and averaged.
The chemotactic response of BAEC to a soluble gradient of […], the most haptotactic of the peptides studied was as follows. The results can be seen in FIG. 6. […] A similar, though more moderate, chemotaxis response to Cβ (SEQ ID NO:1) was obtained with HF.

tested cell lines = assay: Haptotaxis assay, statements over the tested cell lines; assay type: cell-based; settings: ligands covalently bound to SB; for haptotactic response / cell binding to SB-ligand, in words: near confluent cell cultures
Experimental: (§1) Peptides or fibrinogen were covalently bound to CNBr activated sepharose beads (SB) (Pharmacia, Piscataway, N.J.) using techniques previously used to bind albumin, fibrinogen and thrombin. Briefly, CNBr-activated sepharose 4B (Pharmacia) was washed with 1N HCl, and suspended in the coupling buffer (pH 8.3), following the protocol supplied by the manufacturer. The peptides were dialyzed against the coupling buffer to remove Tris. Peptides (1 mg) were not highly water soluble. The peptides were dissolved in 1 mL 70% ethanol or dimethylformamide, and were then mixed into the coupling buffer containing 1 mL CNBr-activated sepharose. The suspension was gently agitated overnight, then centrifuged 500×g to pack the beads. This procedure covalently binds more than 95% of proteins or peptides including fibrinogen or peptides-CαE (SEQ ID NO:3), Cβ (SEQ ID NO:1) and preCγ (SEQ ID NO:2) to the beads determined by Abs280 readings of the solutions.
(§2) The migratory/adhesion response of cells to proteins (such as fibrinogen) or peptides covalently bound to SB was measured as follows. Cells were grown in 6 or 12 well plates to near confluence or in suspension until they covered about ½ to ⅔ of the plate surface. At that point, about […] of a suspension containing 50% v/v SB coated with the test protein or peptide were added to the plate and dispersed by gentle shaking for 1 min. The plate was then returned to the incubator and examined at different times by inverted phase microscopy.
(§3) The SB (naked or ligand bound) sedimented onto the nearly confluent cell layer and occasionally made physical contact with cell membranes on the plate (ascribed to Brownian motion or micro-convection currents). […] Typically, 300 beads (but not less then 200) were counted in each well and the ratio of SB bound to the cells relative to total number SB could be calculated (SB bound/SB total). Counting the percentage of SB attached to the cell surface at different time intervals provided a quantitative assay of the kinetics of the attachment of coated beads to cells. Negative control with uncoated SB or positive controls with SB-fibrinogen were employed with at least 3 wells measured for each. The statistical error was calculated from the square root of the total counts.
(§4) The peptides of the present invention were synthesized and tested in cell culture systems as described above. Essentially, peptides were covalently attached to sepharose beads to form SB-Cα (SEQ ID NO:4), SB-Cβ (SEQ ID NO:1), SB-PreCγ (SEQ ID NO:2), SB-Cγ (SEQ ID NO:5) and SB-CαE (SEQ ID NO:3), respectively, as was fibrinogen to form SB-Fib. The SB-peptide combination was then incubated with cultured cells. […] The haptotactic potency of the peptides is summarized in Table 3 with the percentage of SB-Fib/peptide attached to cells (by day 4) given in columns 2-5 of Table 3.

[1] = system: bovine aortic endothelial cells (EC, BAEC); assay: Haptotaxis assay: attachment of ligand-coated SB to cultured cells; assay type: cell-based; settings: for % Binding of peptide-coated SB to normal cultured cells: percentage of SB-ligand attached to cells by day 4
Experimental: as §1, §2, §3, §4

EC cells (BAEC) = assay: FACS analysis of binding of FITC-labeled peptides; assay type: cell-based, bovine; settings: 10 μg/ml or 100 μg/ml, medium with 0.1% albumin
Experimental: EC and HF cell monolayers were washed and then incubated with trypsin-versene. Cells were then washed with growth medium and resuspended in medium with 0.1% albumin. FITC-labeled peptide-Cβ (SEQ ID NO:1) was incubated with 5×10^5 EC cells (10 μg/ml or 100 μg/ml) or with 2.5×10^5 HF cells (100 μg/ml) in medium with 0.1% albumin. FITC-labeled peptide-CαE (SEQ ID NO:3) and Cα (SEQ ID NO:4) (10 μg/ml) was incubated with 5×10^5 EC cells in medium with 0.1% albumin. Cells were then washed with PBS and 1% albumin. Cells were resuspended in PBS and 1% albumin and then filtered through a mesh for FACS analysis, in which the FITC tluorescence was measured for each cell.
The control is without FITC-labeled peptide (background fluorescence).
In competition experiments, cells were incubated with various concentrations of unlabeled Cβ (SEQ ID NO:1) for 15 mins, an aliquot of Cβ^FITC (4 mM) was added and the sample was subjected to FACS analysis. […] The Cβ^FITC (SEQ ID NO:1) uptake experiments best fitted a linear-quadratic curve-fit.

[2] = system: normal human skin fibroblasts (HF); assay: Haptotaxis assay: attachment of ligand-coated sepharose beads (SB) to cultured cells; assay type: cell-based; settings: for % Binding of peptide-coated SB to normal cultured cells: percentage of SB-ligand attached to cells by day 4
Experimental: as §1, §2, §3, §4

[3] = system: porcine smooth muscle cells (SMC); assay: Haptotaxis assay: attachment of ligand-coated SB to cultured cells; assay type: cell-based; settings: for % Binding of peptide-coated SB to normal cultured cells: percentage of SB-ligand attached to cells by day 4
Experimental: as §1, §2, §3, §4

[4] = system: normal murine fibroblasts (MF); assay: as above; assay type: cell-based; settings: percentage of SB-ligand attached to cells by day 4
Experimental: as §1, §2, §3, §4

[5] = system: murine mammary adenocarcinoma cells (EMT-6); assay: as above; assay type: cell-based; settings: percentage of SB-ligand attached to cells by day 4
Experimental: as §1, §2, §3, §4

[6] = system: human ovarian carcinoma cells (OV-1063); assay: as above; assay type: cell-based; settings: percentage of SB-ligand attached to cells by day 4
Experimental: as §1, §2, §3, §4

KTRWYSMKKTTMKIIPFNRL (Equivalent to an internal sequence of fibrinogen gamma-chain) [PreCγ]
proliferative response of HF (MTS proliferation assay) (HF): none of these peptides stimulated or inhibited proliferation
chemotaxis, in words (BAEC; concentrations of up to 40 μM): significant chemotaxis
haptotactic response / cell binding to SB-ligand, in words (tested cell lines): significant haptotactic responses
haptotactic response / cell binding to SB-ligand, in words (tested cell lines; listed as preCγ): highly haptotactic; also recorded: most potent
cell binding / haptotactic response to SB-ligand, in words [1]: greatest haptotactic response

EADHEGTHSTKRGHAKSRP (Equivalent to the c-terminus of fibrinogen alpha-chain) [Cα, reference compound]
proliferative response of HF (MTS proliferation assay) (HF): none of these peptides stimulated or inhibited proliferation
chemotactic response of BAEC, in words (BAEC; soluble gradient, up to 40 μg/ml, conditioned medium = 100% chemotaxis): elicited no response
binding/uptake of FITC-labeled peptide by FACS, in words (EC cells (BAEC)): did not bind
haptotactic response / cell binding to SB-ligand, in words (tested cell lines): inactive
haptotactic response / cell binding to SB-ligand, in words (tested cell lines; listed as peptide-Cα): no cell adhesive effects

LTIGEGQQHHLGGAKQAGDV (Equivalent to the c-terminus of fibrinogen gamma-chain) [Cγ, control peptide homologous to the C-terminus of the fibrinogen γ chain, γ 392-411, reference compound]
proliferative response of HF (MTS proliferation assay) (HF): none of these peptides stimulated or inhibited proliferation
haptotactic response / cell binding to SB-ligand, in words (tested cell lines): minor negligible activity
cell binding / haptotactic response to SB-ligand, in words [1]: only negligible effect
cell binding / haptotactic response to SB-ligand, in words ([1]; listed as peptide Cγ): bound variably

SB-Cγ: peptide Cγ (SEQ ID NO:5) covalently attached to sepharose beads (LTIGEGQQHHLGGAKQAGDV; also: attached to sepharose beads) [reference compound]
% Binding of peptide-coated SB to normal cultured cells [2]: 2%
% Binding of peptide-coated SB to normal cultured cells [3]: 1%
% Binding of peptide-coated SB to normal cultured cells [4]: 0%
% Binding of peptide-coated SB to normal cultured cells [5]: 2%
cell binding / haptotactic response to SB-ligand, in words [1]: Variable haptotaxis
% Binding of peptide-coated SB to normal cultured cells [1]: 2 to 93* %
% Binding of peptide-coated SB to normal cultured cells [6]: 0%

RGADYSLRAVRMKIRPLVTQ (Equivalent to the c-erminus of fibrinogen alpha-E-chain) [CαE, haptotactic peptide homologous to the C-terminus of the fibrinogen αE chain, αE 828-847]
proliferative response of HF (MTS proliferation assay) (HF): none of these peptides stimulated or inhibited proliferation
haptotactic response / cell binding to SB-ligand, in words (tested cell lines): to a lesser degree; also recorded: significant haptotactic responses

SB-PreCγ: peptide preCγ (SEQ ID NO:2) covalently attached to sepharose beads (KTRWYSMKKTTMKIIPFNRL; also: attached to sepharose beads)
cell binding to SB-ligand, in words [2]: bound
% Binding of peptide-coated SB to normal cultured cells [2]: 100%
cell lines excepted from binding to SB-ligand (all other tested lines bound) (tested cell lines): with the exception of OV-1063, keratinocytes and cells derived from a leucocytic lineage
cell binding to SB-ligand, in words [3]: bound
% Binding of peptide-coated SB to normal cultured cells [3]: 98%
cell binding / haptotactic response to SB-ligand, in words [1]: bound
% Binding of peptide-coated SB to normal cultured cells [1]: 100%

FITC-labeled peptide Cα: FITC-labeled peptide Cα (SEQ ID NO:4), negative control (EADHEGTHSTKRGHAKSRP; not fully specified (N-terminus); also: FITC label, position not given here) [reference compound]
binding/uptake of FITC-labeled peptide by FACS, in words (EC cells (BAEC)): bound only slightly (non-specifically)

FITC-labeled peptide Cγ: FITC-labeled peptide Cγ (SEQ ID NO:5) (LTIGEGQQHHLGGAKQAGDV; not fully specified (N-terminus); also: FITC label, position not given here) [reference compound]
binding/uptake of FITC-labeled peptide by FACS, in words (EC cells (BAEC)): bound only slightly (non-specifically)
